# Assay results published in patent US20240307383A1 (AstraZeneca AB, priority 2023, published 2024).
# Where two headings read alike, the source gives them in different places.
# What was measured:
# [1] = tested on: patients having chronic kidney disease; test: UACR change from baseline over 12 weeks (Example 3, FIG. 5); assay type: in vivo, human; conditions: dapagliflozin 10 mg alone; plateau over 12-week period; UACR>700 mg/g
# [2] = tested on: patients having chronic kidney disease; test: Systolic blood pressure change from baseline, all participants (Example 3, FIG. 6, Table 10B); assay type: in vivo, human
# [3] = tested on: patients having chronic kidney disease; test: Systolic blood pressure change from baseline, participants having UACR >700 mg/g (FIG. 7A, Table 11A); assay type: in vivo, human; conditions: for Systolic blood pressure, mean change from baseline: Dapa 10 mg + placebo, UACR >700 mg/g
# [4] = tested on: patients having chronic kidney disease; test: Diastolic blood pressure change from baseline, participants having UACR >700 mg/g (FIG. 7B, Table 11B); assay type: in vivo, human; conditions: for Diastolic blood pressure, mean change from baseline: Dapa 10 mg + placebo, UACR >700 mg/g
# [5] = tested on: healthy volunteers and patients with type 2 diabetes; conditions: cited from earlier work
# [6] = tested on: patients with type 2 diabetes and CKD; conditions: post hoc analysis of the CREDENCE trial; cited from earlier work
# [7] = tested on: pregnant rabbits; conditions: period of major embryonic organogenesis; cited from earlier work
# [8] = observations so far; cited from earlier work
# [9] = dapagliflozin 10 mg + placebo, end of 12-week period, UACR>700 mg/g
compound,measurement,setting,value
"CCOc1ccc(Cc2cc([C@@H]3O[C@H](CO)[C@@H](O)[C@H](O)[C@H]3O)ccc2Cl)cc1 [dapagliflozin, (1S)-1,5-anhydro-1-{4-chloro-3-[(4-ethoxyphenyl)methyl]phenyl}-D-glucitol]",Mean percent decrease of UACR from baseline,[1],approximately 20%
same,"Systolic blood pressure, mean change","[2]; Dapa 10 mg + placebo, all participants",−3.4
same,Decrease in systolic blood pressure from baseline,"[2]; dapagliflozin 10 mg + placebo, 12-week period, all participants",3.4%
same,Systolic blood pressure after final planned dose,"[2]; dapagliflozin 10 mg + placebo, week 14",returned to baseline levels
same,"Systolic blood pressure, mean change from baseline",[3]; Week 1,−5.7
same,"Systolic blood pressure, mean change from baseline",[3]; Week 3,−6.1
same,"Systolic blood pressure, mean change from baseline",[3]; Week 6,−6.5
same,"Systolic blood pressure, mean change from baseline",[3]; Week 9,−2.9
same,"Systolic blood pressure, mean change from baseline",[3]; Week 12,−4.6
same,Mean reduction in systolic blood pressure from baseline,[3]; [9],over 4%
same,"Diastolic blood pressure, mean change from baseline",[4]; Week 1,−2.9
same,"Diastolic blood pressure, mean change from baseline",[4]; Week 3,−2.4
same,"Diastolic blood pressure, mean change from baseline",[4]; Week 6,−2.7
same,"Diastolic blood pressure, mean change from baseline",[4]; Week 9,−2.0
same,"Diastolic blood pressure, mean change from baseline",[4]; Week 12,−2.2
same,Mean reduction in diastolic blood pressure relative to baseline,[4]; [9],approximately 2%
same,Well tolerated dose,[5]; repeat dose testing for 14 days in healthy volunteers and patients with type 2 diabetes,up to 100 mg/day
same,Well tolerated dose,[5]; single dose testing in healthy volunteers,up to 500 mg/day
Cc1ccc([C@@H]2O[C@H](CO)[C@@H](O)[C@H](O)[C@H]2O)cc1Cc1ccc(-c2ccc(F)cc2)s1 [canagliflozin],Effect on UACR levels,[6],failed to reduce UACR levels below 300 mg/g in a substantial number of patients
"COc1nc(C)cnc1NS(=O)(=O)c1cccnc1-c1ccc(-c2nnco2)cc1 [zibotentan, N-(3-methoxy-5-methylpyrazin-2-yl)-2-[4-(1,3,4-oxadiazol-2-yl)phenyl]pyridine-3-sulfonamide]",Dose levels causing teratogenic effects,[7],≥ 1 mg/kg/day
same,Hepatotoxicity,[8],has not been observed
